The source of these data is patent US6632630B2, “Monooxygenase assays” (Aclara Biosciences, Inc., priority 2000, dated 2003).

Each structure is given as a SMILES string.

The nature of this data set: Solubility in water. Type of data set: physicochemical.

For `O=c1ccc2nc3ccc(OCc4ccccc4)cc3oc-2c1` [7-BR, 7-benzyloxyresorufin], the solubility in water entry is reported as “very limited solubility”.
